Data reported in patent US8071575B2, “Methods and compounds for the targeted delivery of agents to bone for interaction therewith” (priority 2007, dated 2011).

Assays:
OVX rats [1] = test: Regional femoral density via Archimedes' Principle; assay type: in vivo, Sprague-Dawley female rats; details: three times per week for 6 weeks
Description: (§1) Animals. Six month old, bilaterally ovariectomized (OVX) or sham operated Sprague-Dawley female rats (Harlan Laboratories, Indianapolis, Ind.) were maintained at the University of Louisville Research Resources Center at 22° C. with a 12-h light/dark cycle and ad libitum access to tap water and rodent chow (Purina Laboratory Rodent Diet 5001). All animal procedures were approved by the Institutional Animal Care and Use Committee, which is certified by the American Association for Accreditation of Laboratory Animal Care.
(§2) In vivo experiments were conducted in order to investigate the efficacy of compounds of the presently-disclosed subject matter. In all of the experiments, OVX and sham operated rats were randomly divided into groups of 5-7 animals. In all of the studies experimental groups included: i) Sham-operated control (euthanized six weeks post surgery as a pretreatment control), ii) OVX control (euthanized six weeks post surgery as a pretreatment control), iii) Sham control receiving vehicle, iv) OVX control receiving vehicle, v) OVX receiving 17-ethinyl estradiol (equimolar concentration with a selected test compound), vi) OVX receiving alendronate (1.6 mg/kg), and vii) OVX receiving parathyroid hormone 1-34 (PTH) ([…]). 17-ethinyl estradiol (17 EE) is a free estrogenic agent known to be orally active, and can serve as an example of an anti-catabolic agent. Alendronate (Alen) is a bisphosphonate that is currently used to treat osteoporosis (e.g., Fosamax®, Merck & Co., Inc,), and can serve as an example of an anti-catabolic agent. Parathyroid hormone 1-34 (PTH) is an agent that can serve as an example of an anabolic agent. All compounds and vehicle (1% DMSO in corn oil) were administered three times per week orally by gavage except for PTH which was administered via a subcutaneous injection in a volume of 0.5 ml/kg body mass thrice per week. Compound administration was initiated 6 weeks following surgery and lasted for 6 weeks (18 doses total).
(§3) Compounds of the presently-disclosed subject matter were orally administered to OVX rats at various doses. As indicated above all BTE's were administered three times per week for 6 weeks.
Following 6 weeks of treatment, blood was obtained from each animal via cardiac puncture following an overnight fast and animals were subsequently euthanized via carbon dioxide asphyxiation. […]
Regional Femoral Density via Archimedes' Principle. […] Briefly, each femur was measured with a Cen-Tech Digital Caliper and a cut was made from each end at 20% of the length of the femur plus half the width of the blade. Subsequently, the bone marrow was washed out of the femoral diaphysis and the Archimedes density for each of the three femoral regions was determined as described above.

[2] = Hydroxyapatite (HA) Binding Assay; details: 10^−5 M analyte, 50 mM Tris-HCl pH 7.4, 1% DMSO; adjusted such that tetracycline = 100
Description: A Hydroxyapatite (HA) Binding Assay is used to determine whether compounds have an affinity for bone. Compounds of the presently-disclosed subject matter having a Bone Targeting Portion (RT) are studied using the HA Binding Assay. A 10^−3 M solution of each analyte was made in 100% dimethylsulfoxide (DMSO). A 100 fold dilution was then made to form a 10^−5 M solution in 50 mM Tris-HCl buffer, pH 7.4, 1% DMSO. Tetracycline was used as a reference analyte and approximately 50% was adsorbed to HA at the concentration of 10^−5 M. The HA slurry was 0.5 g/100 mL 50 mM Tris-HCl buffer, 1% DMSO.
For each analyte, two samples were prepared. For one sample, 1 mL of 10^−5 M analyte and 100 μL 50 mM Tris-HCl buffer, 1% DMSO was pipetted into a microcentrifuge tube. For the second sample, 1 mL of 10^−5 M analyte and 100 μL of the HA slurry was pipetted into a microcentrifuge tube. The samples were mixed gently by inversion for 4 minutes and then centrifuged at 12,000 g for 3 minutes to sediment the HA contained in those samples. The supernatant was transferred to another microcentrifuge tube.
An electronic spectral scan (ultraviolet-visible) from 220-520 nm was obtained for each analyte using a Varian Cary 300 Bio Scan. The blank was 50 mM Tris-HCl buffer, 1% DMSO. The wavelength of maximum absorbance (λmax) was determined, and the extinction coefficient (ε) was calculated using the Beer-Lambert Law.
The absorbance of the samples incubated with HA was measured at λmax, and the molar concentration of the analyte was then determined using the Beer-Lambert Law and the previously calculated extinction coefficient. The fraction adsorbed to HA for each sample was subsequently calculated.

ICR Swiss mice = test: Stimulation of periosteal bone formation in a mouse calvarial injection model; assay type: in vivo; details: present-tense example, no data or figure
Description: Stimulation of Periosteal Bone Formation in a Mouse Calvarial Injection Model. The anabolic (bone formation) of compounds of the presently-disclosed subject matter are evaluated in the mouse calvarial injection model. Briefly, 4-week-old ICR Swiss mice are injected subcutaneously over the surface of the calvariae with compounds of the presently-disclosed subject matter at concentrations of 0, 1, 3, and 10 mg/kg/day for 5 days (twice a day). Microtubule inhibitor TN-16 (5 mg/kg/day for 2 days, twice a day) are used as a positive control. Mice are sacrificed two weeks after the injections are completed. Dissected calvarial samples are fixed in 10% phosphate-buffered formalin for 2 days, decalcified in 10% EDTA for 2 weeks and then embedded in paraffin. Histological sections are cut and stained with H&E and orange G. New woven bone formation (new bone area) is quantified by histomorphometry using the OsteoMeasure system (OsteoMetrics Inc., Atlanta, Ga.).

OVX rats [3] = test: Femoral density via Archimedes' Principle (whole bone); assay type: in vivo, Sprague-Dawley female rats; details: OVX rats, three times per week for 6 weeks
Description: as §1, §2, §3
Following 6 weeks of treatment, blood was obtained from each animal via cardiac puncture following an overnight fast and animals were subsequently euthanized via carbon dioxide asphyxiation. Blood was centrifuged immediately and the obtained serum samples were aliquoted and stored at −70° C. prior to analysis. Uteri were removed and fresh weights were obtained. Uterine masses were normalized to body mass at the end of the experiment. The left and right femora and left and right tibiae were subsequently collected from each animal, cleaned of soft tissue, and stored in saline at 4° C. prior to analysis.
Femoral Density via Archimedes' Principle. Right femora were submerged in distilled water and fully hydrated under a vacuum for 1 hr. Subsequently, the mass of each hydrated femur was obtained in air and when submerged in water. Densities were determined using Archimedes' Principle according to the following formula: density=[mass of hydrated femur/(mass of hydrated femur−mass of hydrated femur submerged in water)]×density of distilled water at a given temperature (See Keenan, et al. Comparison of bone density measurement techniques: DXA and Archimedes' principle. J Bone Miner Res 1997; 12:1903-7.). The obtained density measurements were associated with whole bone.

Structure (SMILES) | regional bone density (left femur) (OVX rats [1]; oral 10, 100, or 1000 μg/kg) | Binding Index (binding to hydroxyapatite) [2] | new bone area (calvarial injection model) (ICR Swiss mice) | whole bone density (right femora) (OVX rats [3]; oral 10, 100, or 1000 μg/kg) | regional bone density (proximal and distal left femur) (OVX rats [1]; oral 3000 μg/kg) | whole bone density (right femora) (OVX rats [3]; oral 3000 μg/kg)
COc1ccc(NC(=O)COCCOCCNC(=O)CCOC2CCC3C4CCc5cc(O)ccc5C4CCC23C)c(O)c1C(N)=O (centres unmarked) [Formula 123] | increased regional bone densities, as compared to the OVX animals | 160 | affect new bone area | in the same ranges as those animals receiving 17-ethinyl estradiol (17 EE), Alendronate (Alen), or Parathyroid hormone 1-34 (PTH) | – | –
COc1ccc(NC(=O)CCC(=O)OC2CCC3C4CCC5=CC(=O)CCC5(C)C4CCC23C)c(O)c1C(N)=O (centres unmarked) [Formula 33] | – | 140 | increase new bone area | – | higher than that of the OVX animals | higher than that of the OVX animals
